Data published in US9034899B2, “Aryl, heteroaryl, and heterocycle substituted tetrahydroisoquinolines and use thereof” (Albany Molecular Research, Inc., priority 2009, dated 2015).

Target: hSERT (Homo sapiens (Human), UniProt P31645)
Test: SERT radioligand binding assay ([125I]RTI-55, HEK-293 membranes)
Conditions: (+)-enantiomers; read-out: SERT IC50
Method: The medium was removed from the flasks and the cells rinsed with HBSS without Ca and without Mg. The cells were then incubated for 5-10 minutes in 10 mM Tris-Cl, pH 7.5, 5 mM EDTA before the cells were lifted with a combination of pipetting and scraping, as needed. The cell suspension was collected into centrifuge bottles and homogenized for 30 seconds with a Polytron homogenizer. The suspension was centrifuged for 30 minutes at 32,000×g, 4° C. The supernatant was decanted and the pellet resuspended and homogenized in 50 mM Tris-Cl, pH 7.5, 1 mM EDTA for 10 seconds. The suspension was then centrifuged again for 30 minutes at 32,000×g, 4° C. The supernatant was decanted and the pellet resuspended in 50 mM Tris-Cl, pH 7.5, 1 mM EDTA and briefly homogenized. A Bradford assay (Bio-rad) was performed and the membrane preparation diluted to 2 mg/ml with 50 mM Tris-Cl, pH 7.5, 1 mM EDTA. Aliquots were prepared, and then frozen and stored at −80° C.
Compounds were dissolved in 100% DMSO at a concentration 100 times the desired highest assay concentration, serially diluted 1:3 in 100% DMSO, and 0.4 μl/well of each solution was dispensed to a Nunc polypropylene, round bottom, 384-well plate. […] The contents of the assay plate were then transferred to a Millipore MultiscreenHTS GF/B filter plate which was pretreated with 0.5% PEI for at least one hour. The plate was vacuum filtered and washed with 7 washes of 100 μl/well 50 mM Tris-Cl, pH 7.5, 120 mM NaCl, 5 mM KCl chilled to 4° C. The filtration and washing were completed in less than 90 seconds. The plates were air-dried overnight, 12 μl/well of MicroScint scintillation fluid added, and the plates counted in a Trilux.
Each plate was run in triplicate, and the concentration response curve thus generated was fit using the four-parameter dose response equation, Y=Bottom+(Top-Bottom)/(1+10^((LogIC50−X)*HillSlope)) in order to determine the IC50 value for each compound. The radioligand concentration chosen for each assay corresponds to the Kd concentration determined through saturation binding analysis for each assay.

hSERT, sequence (P31645 whole entry): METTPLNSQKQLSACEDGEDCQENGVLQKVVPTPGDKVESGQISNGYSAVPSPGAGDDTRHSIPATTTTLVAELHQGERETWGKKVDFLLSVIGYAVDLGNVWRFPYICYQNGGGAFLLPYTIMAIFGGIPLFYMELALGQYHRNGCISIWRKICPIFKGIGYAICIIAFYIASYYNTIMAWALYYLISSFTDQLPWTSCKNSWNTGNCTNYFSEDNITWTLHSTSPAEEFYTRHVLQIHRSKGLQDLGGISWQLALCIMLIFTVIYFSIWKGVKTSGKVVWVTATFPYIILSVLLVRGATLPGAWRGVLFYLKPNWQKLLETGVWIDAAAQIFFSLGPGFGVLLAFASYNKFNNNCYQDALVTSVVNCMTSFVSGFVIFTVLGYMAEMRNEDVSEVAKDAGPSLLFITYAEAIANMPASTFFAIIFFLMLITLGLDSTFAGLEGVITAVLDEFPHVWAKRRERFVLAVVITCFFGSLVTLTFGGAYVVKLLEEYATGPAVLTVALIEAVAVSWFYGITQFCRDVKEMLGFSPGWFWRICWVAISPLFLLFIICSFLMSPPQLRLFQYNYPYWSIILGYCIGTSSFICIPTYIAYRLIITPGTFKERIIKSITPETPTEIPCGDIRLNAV

Row | SMILES | IC50 [nM]
1 | CC1(C)NCC(c2ccc(Cl)c(Cl)c2)c2ccc(-c3cccnn3)cc21 (single isomer, unassigned) [Example 9, 4-(3,4-dichlorophenyl)-1,1-dimethyl-7-(pyridazin-3-yl)-1,2,3,4-tetrahydroisoquinoline] | 4.8
2 | FC(F)Oc1ccc(-c2ccc3c(c2)CNCC3c2ccc(Cl)c(Cl)c2)nn1 (stereo not shown) [Example 12, 4-(3,4-dichlorophenyl)-7-(6-(difluoromethoxy)pyridazin-3-yl)-1,2,3,4-tetrahydroisoquinoline] | 3.6
3 | CC1(C)NCC(c2ccc(Cl)c(Cl)c2)c2ccc(-c3ccc(N)nn3)cc21 (stereo not shown) [Example 13, 4-(3,4-dichlorophenyl)-7-(6-aminopyridazin-3-yl)-1,1-dimethyl-1,2,3,4-tetrahydroisoquinoline] | 2.3
4 | Cc1noc(C)c1-c1ccc2c(c1)CNCC2c1ccc(Cl)c(Cl)c1 (stereo not shown) [Example 25, 4-(4-(3,4-dichlorophenyl)-1,2,3,4-tetrahydroisoquinolin-7-yl)-3,5-dimethylisoxazole] | 4.9
5 | Clc1ccc(C2CNCc3cc(-c4cccnn4)ccc32)cc1Cl (stereo not shown) [Example 33, 4-(3,4-dichlorophenyl)-7-(pyridazin-3-yl)-1,2,3,4-tetrahydroisoquinoline] | 6.2
6 | Nc1ccc(-c2ccc3c(c2)CNCC3c2ccc(Cl)c(Cl)c2)nn1 (stereo not shown) [Example 34, 6-(4-(3,4-dichlorophenyl)-1,2,3,4-tetrahydroisoquinolin-7-yl)pyridazin-3-amine] | 1.8
7 | CC1(C)NCC(c2ccc(Cl)c(Cl)c2)c2ccc(-c3ccc4ncnn4c3)cc21 (stereo not shown) [Example 40, 4-(3,4-dichlorophenyl)-7-([1,2,4]triazolo[1,5-a]pyridin-6-yl)-1,1-dimethyl-1,2,3,4-tetrahydroisoquinoline] | 4.2
